Among the data in paper PMC5589576, “Targeting the apoptotic Mcl-1-PUMA interface with a dual-acting compound” (Oncotarget, 2017) are IC50 and Ki values, retold here.

Molecules are shown by their SMILES.

One experiment relates to SMMC-7721 cells. In words: MTT test on suppressing cancer cells, SMMC-7721. Format: cell-based. The note with it: Homo sapiens, 24h. Here is the method: (Nunc). To check the interference effects of candidate membranes. […]
Microplate Spectrophotometer with excitation wavelength (Boster). being 432 nm. The IC50 calculations were performed by Graphpad Prism 5 (Graphpad software, Inc.). Key residues discovery
Tests of candidate compounds on suppressing In the present study, key residues involved in the […]
by using site-directed mutagenesis and FPA competition
Cell lines including A2780, MCF-7 and SMMC- assays in combination. According to the results of pairwise 7721 were cultured to the logarithmic growth phase per-residue free energy decomposition, the residues in 3 ml complete media (RPMI1640 plus 10%FBS), contributing a lot to the binding of PUMA/Comp8 to 4 Mcl-1 were subjected to site-directed mutagenesis. By respectively. After adjusting their concentrations to 5×10 reference to the primers listed in Supplementary Table5, cells/ml with complete media, these cell lines were plated overlapping extension PCR was conducted to realize into 96-well, transparent, flat-bottom plates (150 μl/well), site-directed mutagenesis. After verified by gene each point was prepared in three replicates. The density sequencing, the individually mutated PCR products were of cultured cell lines was evaluated by MTT tests. When cloned into the expressing vector pET-43.1a (+). […]

A further experiment has as its target T1, Mcl-1D237A (Homo sapiens, UniProt Q07820, D256A).
T1 construct: implied by Ni2+-NTA purification from pET-43.1a(+)); made in house; host or cells: E. coli BL21
The experiment is described as follows: FPA competition assay, mutant Mcl-1 D237A. In kind it is binding. Here is the method: 1 protein was induced by 0.6 mM IPTG for 20 h in the Flow cytometry condition of 20°C, 160 rpm. The strains were harvested by centrifugation (6000 rpm, 10 min, 4°C) and broken Tested cells (A2780, MCF-7 and SMMC-7721) by ultrasonication (10 s operation and 10 s stop, 5 min). were plated in 6-well plates (1×10^5 cells/well) and treated […]
All cells were detached by trypsin and washed manufacturer ’s instructions. The purified Mcl-1 was (three times) by precooled PBS. The resuspended cells analyzed by 15% SDS-PAGE and dialyzed against 10 mM were stained by Annexin V-FITC and PI in sequence PBS (pH 7.4) before being stored under −80°C for later use. before being detected by flow cytometry.
FPA competition assays The FITC labelled
BH3 peptide of Mcl-1 (FITC-Mcl-BH3, FITC-AHx-Western blot analysis […]
and used as fluorescence probe in the FPA competition A2780, MCF-7 and SMMC-7721 cells treated with assays. All assays were performed in the assay and without Comp8 were harvested, washed by precooled

T1 sequence (Q07820 172-327 D256A): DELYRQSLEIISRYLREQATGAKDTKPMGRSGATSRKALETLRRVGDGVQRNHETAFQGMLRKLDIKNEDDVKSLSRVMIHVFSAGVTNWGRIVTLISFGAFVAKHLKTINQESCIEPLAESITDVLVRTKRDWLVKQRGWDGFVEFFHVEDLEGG

A word on the IC50: it is the concentration needed to halve the response being measured. As a reminder, the Ki is the equilibrium dissociation constant of an inhibitor or competing ligand from its target. A high value points to a looser hold on the target. As for `O=C1N=C(N2CCN(CCO)CC2)S/C1=C\c1ccc(-c2ccccc2)cc1` [Comp8], the concentration for half-maximal inhibition (IC50) in the experiment with SMMC-7721 cells is 44.2 ± 2.22 µM. The molecule also had an inhibition constant (Ki) on Mcl-1D237A of 1.98 ± 0.31 µM.
